Paper PMC3039689, “Identification of Small Molecule Lead Compounds for Visceral Leishmaniasis Using a Novel Ex Vivo Splenic Explant Model System” (PLoS Neglected Tropical Diseases, 2011)
Where a name gives a salt, the structure may show the parent alone. Read-outs that look alike come from different tables or passages of the source.

Tests used:
[1] = test system: luciferase-transfected Leishmania donovani; experiment: Anti-leishmanial efficacy (EC50) in the ex vivo splenic explant model; assay type: cell-based
Protocol: To establish the plate assay for drug screening, the spleens from 2 infected hamsters were aseptically removed and placed in a Petri dish containing 5 mL of Collagenase D (Roche) at 2 mg/mL of buffer (10 mM Hepes pH 7.4, 150 mM NaCl, 5 mM KCl, 1 mM MgCl2, 1.8 mM CaCl2). The spleen was infiltrated by injection with approximately 2 mL of Collagenase solution, the tissue was cut into small pieces using sharp scissors, and incubated for 20 minutes at 37°C. The cell suspension and remaining tissue fragments were gently passed through a 100 µm cell strainer (B–D) to obtain a single cell suspension, which was washed twice by centrifugation (500 g for 7 min at 4°C) and re-suspended in culture medium composed of DMEM (Gibco), 5% FBS, 1 mM Sodium pyruvate (Gibco), 1X MEM amino acids solution (Sigma), 0.02% v/v/EDTA, 10 mM HEPES buffer (Cellgro) and 100 IU/mL Penicillin/100 […] Streptomycin solution (Cellgro).
The anti-leishmanial efficacy of the compounds was determined using the splenic explant model in a 96-well plate format. […] Because variation in the parasite burden between different explant cultures was expected, the concentration of cells used in each experiment was adjusted to give approximately 100 counts by luminometry (equivalent to ∼240,000 parasites). The number of surviving parasites was determined by luminometry as described above.

[2] = Cell toxicity (CC50) in the HepG2 cell line, CellTiter-Glo; assay type: cell-based, human; settings: human
Protocol: After 24 hours of culture at 37°C the number of viable cells was determined by quantification of the ATP present in the cell using the CellTiter-Glo luminescent Cell Viability Assay (Promega).

[3] = Leishmania donovani, ex vivo splenic explant, 48 h, luminometry, at least two experiments, compound from screened library, read-out: Ex vivo model EC50 Mean
[4] = HepG2 cell line, 24 h, ATP luminescence, compound from screened library, read-out: HepG2 CC50 Mean
[5] = Leishmania donovani, 48 h, ex vivo splenic explant, 48 h, luminometry, at least two experiments, compound from screened library, read-out: Ex vivo model EC50 Mean
[6] = HepG2 cells, HepG2 cell line, 24 h, ATP luminescence, compound from screened library, read-out: HepG2 CC50 Mean
[7] = Leishmania donovani, 50% reduction in parasite counts in the ex vivo model, read-out: EC50 Mean (Table S2)
[8] = 50% reduction in parasite counts in the ex vivo model, read-out: EC50 Mean (Table S2)

Row | Molecule | EC50 [1, 3] [µM] | EC50 [1, 5] [µM] | CC50 at 24 h [2, 6] [µM] | also measured
1 | CN(C)CCCN1c2ccc(O)cc2Sc2ccc(Cl)cc21 [7-Hydroxychlorpromazine] | 11 |  |  | CC50 [2, 4]: 60.1 µM
2 | COc1ccc(-c2cc(=O)c3cc(OC)ccc3o2)cc1 [6,4'-dimethoxyflavone] |  | 17.9 | 95 | 
3 | CCCCCCCCCCC[C@@H](C[C@@H]1OC(=O)[C@H]1CCCCCC)OC(=O)[C@H](CC(C)C)NC=O [Orlistat] |  | 24.9 |  | CC50 at 24 h [2]: 161 µM
4 | C[C@]12CC[C@H]3[C@@H](CC=C4C[C@@H](O)CC[C@@]43C)[C@@H]1CC[C@@H]2N(CCO)CCO [17beta-[Bis(2-hydroxyethyl)amino]androst-5-en-3beta-ol] |  | 7.5 | 88.5 | 
5 | C[C@@H]1[C@H](O)[C@@H](C)/C=C/C=C/C=C/C=C/C=C/C=C/C=C/[C@H](O[C@@H]2O[C@H](C)[C@@H](O)[C@H](N)[C@@H]2O)C[C@@H]2O[C@](O)(C[C@@H](O)C[C@@H](O)[C@H](O)CC[C@@H](O)C[C@@H](O)CC(=O)O[C@H]1C)C[C@H](O)[C@H]2C(=O)O [amphotericin B deoxycholate] |  |  |  | EC50 ([1]; Leishmania donovani, ex vivo model, freshly solubilized compound from commercial source, read-out: EC50): 0.24 ± 0.02 µM
6 | C[C@]12C(=O)C=CCC1=CC[C@@H]1[C@@H]2CC[C@@]2(O)C(=O)O[C@@]3(C)[C@H]4C[C@]5(C)[C@@H](CO[C@@]16O[C@]23[C@H]5C6=O)C(=O)O4 [Physalin B] | 8.6 |  |  | EC50 [1, 7]: 8.59 µM; CC50 at 24 h [2, 4]: 50.7 µM
7 | Oc1c(Cl)cc(Cl)c(Cl)c1Cc1c(O)c(Cl)cc(Cl)c1Cl [Hexachlorophene] |  |  |  | EC50 ([1]; Leishmania donovani, 48 h, read-out: Ex vivo model EC50 Mean): 13.6 µM
8 | COc1cc2ccccc2c2cc([N+](=O)[O-])oc12 [Naphtho(2,1-b)furan, 4-methoxy-2-nitro-] |  | 6.8 |  | CC50 at 24 h [2]: 64.3 µM
9 | C=C1C(=O)O[C@H]2C[C@@H]1[C@@H](OC(C)=O)C/C(C)=C/CC/C(C)=C\CC[C@@]2(C)O [Crassin] |  | 8.9 | 51.6 | 
10 | [H]/N=C(\N/C(=N/[H])NCCCCCCNC(=N)NC(=N)Nc1ccc(Cl)cc1)Nc1ccc(Cl)cc1 [Chlorhexidine] | 10.3 |  | 60.5 | 
11 | Monensin Sodium |  |  |  | EC50 [1, 8]: 2.44 µM; EC50 ([1]; ex vivo splenic explant, 48 h, luminometry, at least two experiments, compound from screened library, read-out: Ex vivo model EC50 Mean): 2.4 µM
12 | Clc1ccc2c(NCCNC3CCCCC3)ccnc2c1 [N1-(7-chloro-4-quinolinyl)-N2-cyclohexyl-1,2-ethanediamine] |  | 3.9 | 46.2 | 
13 | CC(C)(C)NCCC(O)c1cc(C(F)(F)F)nc2c(C(F)(F)F)cccc12 (centres unmarked) [1-(2,8-bis(trifluoromethyl)-4-quinolinyl)-3-(tert-butylamino)-1-propanol] |  | 7.9 | 44.2 | 
14 | COc1ccc2cc1Oc1ccc(cc1)C[C@H]1c3cc(c(OC)cc3CCN1C)Oc1c(OC)c(OC)cc3c1[C@H](C2)N(C)CC3 [Tetrandrine] | 5.6 |  |  | CC50 at 24 h [2]: 31.4 µM
15 | CC[C@@]1(O)C[C@H](O[C@H]2C[C@H](N(C)C)[C@H](O)[C@H](C)O2)c2c(cc3c(c2O)C(=O)c2c(O)cccc2C3=O)[C@H]1C(=O)OC [Aklavine Hydrochloride] | 0.7 |  |  | CC50 [2, 4]: 14 µM
16 | CSc1ccc2c(c1)c(CCN)c(C)n2Cc1ccccc1Cl [2-[1-[(2-chlorophenyl)methyl]-2-methyl-5-methylsulfanyl-indol-3-yl]ethanamine] | 9.4 |  |  | CC50 [2, 4]: 71.8 µM
17 | CC(C)=CCNc1ncnc2nc[nH]c12 [N6-Isopentenyladenine] | 20 |  |  | CC50 [2]: 225 µM
18 | OC1(c2ccccc2)c2ccccc2NC2=NCCN21 (centres unmarked) [5-phenyl-3,10-dihydro-2H-imidazo[2,1-b]quinazolin-5-ol] |  | 12 | 107 | 
19 | CCCCCCCCCCCCCCCC[N+](C)(C)C [Cetrimonium Bromide] | 6.1 |  |  | CC50 [2, 4]: 42.9 µM

Row | Molecule | EC50 [1, 3] [µM] | EC50 [1, 5] [µM] | CC50 at 24 h [2, 6] [µM] | also measured
20 | COc1cc(NCCC2CCCCN2)c2ncccc2c1 (centres unmarked) [6-methoxy-N-(2-(2-piperidinyl)ethyl)-8-quinolinamine] | 5.1 |  |  | CC50 at 24 h [2]: 108 µM
21 | CC[C@@H](C(=O)O)[C@@H]1O[C@@H]([C@@H](C)[C@H](O)[C@H](C)C(=O)[C@H](CC)[C@H]2O[C@]3(C=C[C@@H](O)[C@]4(CC[C@@](C)([C@H]5CC[C@](O)(CC)[C@H](C)O5)O4)O3)[C@H](C)C[C@@H]2C)[C@@H](C)C[C@@H]1C [Narasin] |  | 13.3 |  | EC50 [1, 7]: 13.3 µM; CC50 at 24 h [2]: 73 µM
22 | CCN(CC)CCN1C(=O)c2cccc3cc(N)cc(c23)C1=O [1H-Benz[de]isoquinoline-1,3(2H)-dione, 5-amino-2-[2-(diethylamino)ethyl]-] | 8.4 |  |  | CC50 [2, 4]: 69.3 µM
23 | CCC1=C(CC2NCCc3ccccc32)CC2c3cc(OC)c(OC)cc3CCN2C1 (centres unmarked) [3-ethyl-9,10-dimethoxy-2-(1,2,3,4-tetrahydro-isoquinolin-1-ylmethyl)-1,6,7,11b-tetrahydro-4H-pyrido(2,1-a)isoquinoline] | 2.7 |  |  | CC50 [2, 4]: 24 µM
24 | CC(NCCN(C)C)C1CC[C@H]2[C@@H]3CCc4cc(O)ccc4[C@H]3CC[C@]12C (some centres unmarked) [17-(1-((2-(dimethylamino)ethyl)amino)ethyl)estra-1,3,5(10)-trien-3-ol] |  | 6.2 |  | CC50 at 24 h [2]: 51.6 µM
25 | NCCCCNCCCN [Spermidine Trihydrochloride] |  | 20 | 132 | 
26 | Oc1c(I)cc(Cl)c2cccnc12 [Clioquinol] | 11.3 |  | 60 | 
27 | CN(C)CCCN1CCC2(CCC(C(C)(C)C)CC2)CC1 [3-(9-tert-butyl-3-azaspiro[5.5]undec-3-yl)-N,N-dimethyl-1-propanamine] |  | 6.1 | 61.8 | 
28 | CNCCC=C1c2ccccc2CCc2ccccc21 [Nortriptyline Hydrochloride] |  | 7.8 |  | CC50 [2]: 52.6 µM
29 | CN(C)CCCNc1cc(O)c2c(c1O)C(=O)c1ccccc1C2=O [2-((3-(dimethylamino)propyl)amino)-1,4-dihydroxyanthra-9,10-quinone] | 6.7 |  |  | CC50 [2, 4]: 75.1 µM
30 | Cc1cc(N2CCCCC2)nc2ccc(Cc3ccc4nc(N5CCCCC5)cc(C)c4c3)cc12 [4-methyl-6-((4-methyl-2-(1-piperidinyl)-6-quinolinyl)methyl)-2-(1-piperidinyl)quinoline] | 18.4 |  |  | CC50 at 24 h [2]: 109 µM
31 | CN(C)CC1CCC2=C(C1=O)C(c1ccc(Cl)c(Cl)c1)C1=C(CCC(CN(C)C)C1=O)O2 (centres unmarked) [9-(3,4-Dichlorophenyl)-2,7-bis(dimethylaminomethyl)-3,4,5,6,7,9-hexahydro-2H-xanthene-1,8-dione] |  | 9.4 | 49.8 | 
32 | CNCCCC12CCC(c3ccccc31)c1ccccc12 [Maprotiline Hydrochloride] |  |  |  | CC50 at 24 h [2]: 57.9 µM
33 | CN(C)CCCNc1c2c(nc3ccc(Cl)cc13)CCCC2 [N-(7-chloro-1,2,3,4-tetrahydroacridin-9-yl)-N',N'-dimethyl-propane-1,3-diamine] | 6.4 |  |  | CC50 [2, 4]: 58.8 µM
34 | CO[C@@H]1C[C@@H](C[C@H]2CC[C@H](C)[C@H]([C@@H](C)C(=O)O)O2)O[C@]2(O[C@](C)([C@H]3CC[C@@](C)([C@@H]4O[C@@H]([C@H]5O[C@@](O)(CO)[C@H](C)C[C@@H]5C)C[C@@H]4C)O3)C[C@H]2C)[C@@H]1C [Nigericin, monosodium salt] |  | 3.1 |  | EC50 [1, 7]: 3.13 µM; CC50 at 24 h [2]: 34.3 µM
35 | Oc1ccc(Cl)c2cccnc12 [Cloxyquin] |  |  | 94.8 | 
36 | CN(C)CCCN1c2ccccc2Sc2ccc(Cl)cc21 [Chlorpromazine] |  |  |  | EC50 [1, 7]: 15.1 µM; CC50 at 24 h [2]: 96.1 µM
37 | CN[C@H]1CC[C@@H](c2ccc(Cl)c(Cl)c2)c2ccccc21 [Sertraline Hydrochloride] |  |  |  | CC50 at 24 h [2]: 82.5 µM
38 | Neomycin sulfate |  |  |  | EC50 [1, 8]: 6.72 µM; Activity in the ex vivo system (screen or EC50 determination) ([1]; transgenic L. donovani, ex vivo system): identified as a compound with activity
